Measured values taken from BindingDB's records for doi:10.1021/jm0502182 (Institute of Cancer Research, 2005).

Test: Inhibitory activity against carboxypeptidase G2 from pseudomonas RS16

| Compound | Ki [µM] |
| --- | --- |
| O=C(O)CC[C@H](NC(=O)c1c(F)c(F)c(N(CCI)CCI)c(F)c1F)C(=O)O [(S)-2-{4-[Bis-(2-iodo-ethyl)-amino]-2,3,5,6-tetrafluoro-benzoylamino}-pentanedioic acid] | 276 |
| O=C(O)CC[C@H](NC(=O)c1c(F)c(F)c(N(CCCl)CCCl)c(F)c1F)C(=O)O [(S)-2-{4-[Bis-(2-chloro-ethyl)-amino]-2,3,5,6-tetrafluoro-benzoylamino}-pentanedioic acid] | 127 |
